# Reference: ChEMBL document CHEMBL3272324, “Studies on antitumor agents, 2. Syntheses and antitumor activities of 1-(tetrahydro-2-furanyl)-5-fluorouracil and 1,3-bis(tetrahydro-2-furanyl)-5-fluorouracil” (J Med Chem, 1978)
# What was measured:
# Sarcoma-180 [1] = test: Antitumor activity against mouse Sarcoma 180 cells allografted in ICR mouse assessed as tumor inhibition at 0.15 mmol/kg, po qd for 7 days measured on day 10 relative to control; format: functional; details: Sarcoma-180, po, read-out: TGI
# [2] = Antitumor activity against rat AH-130 cells allografted in Donryu rat assessed as tumor inhibition at 0.45 mmol/kg, po qd for 7 days measured on day 10 relative to control; format: functional; details: read-out: TGI
# [3] = Antitumor activity against mouse Ehrlich carcinoma cells allografted in ddY mouse assessed as tumor inhibition at 0.45 mmol/kg, po qd for 7 days measured on day 10 relative to control; format: functional; details: read-out: TGI
# W256 [4] = test: Antitumor activity against rat Walker 256 cells allografted in Wistar rat assessed as tumor inhibition at 0.45 mmol/kg, po qd for 7 days measured on day 10 relative to control; format: functional; details: read-out: TGI
# YOSHIDA [5] = test: Antitumor activity against rat Yoshida cells allografted in Donryu rat assessed as tumor inhibition at 0.15 mmol/kg, po qd for 7 days measured on day 10 relative to control; format: functional; details: read-out: TGI
# Rattus norvegicus [6] = test: Toxicity in Donryu rat allografted with rat AH-130 cells assessed as body weight change at 0.45 mmol/kg, po administered for 7 days measured on day 10 relative to control; format: organism-based; details: in vivo, 168 h
# Sarcoma-180 [7] = test: Antitumor activity against mouse Sarcoma 180 cells allografted in ICR mouse assessed as tumor inhibition at 0.45 mmol/kg, po qd for 7 days measured on day 10 relative to control; format: functional; details: Sarcoma-180, po, read-out: TGI
# W256 [8] = test: Antitumor activity against rat Walker 256 cells allografted in Wistar rat assessed as tumor inhibition at 0.15 mmol/kg, po qd for 7 days measured on day 10 relative to control; format: functional; details: read-out: TGI
# YOSHIDA [9] = test: Antitumor activity against rat Yoshida cells allografted in Donryu rat assessed as tumor inhibition at 0.45 mmol/kg, po qd for 7 days measured on day 10 relative to control; format: functional; details: read-out: TGI
# [10] = Antitumor activity against rat AH-130 cells allografted in Donryu rat assessed as tumor inhibition at 0.15 mmol/kg, po qd for 7 days measured on day 10 relative to control; format: functional; details: read-out: TGI
# [11] = Antitumor activity against mouse Ehrlich carcinoma cells allografted in ddY mouse assessed as tumor inhibition at 0.15 mmol/kg, po qd for 7 days measured on day 10 relative to control; format: functional; details: read-out: TGI
# Sarcoma-180 [12] = test: Antitumor activity against mouse Sarcoma 180 cells allografted in ICR mouse assessed as tumor inhibition at 0.08 mmol/kg, po qd for 7 days measured on day 10 relative to control; format: functional; details: Sarcoma-180, po, read-out: TGI
# Rattus norvegicus [13] = test: Toxicity in Donryu rat allografted with rat AH-130 cells assessed as body weight change at 0.08 mmol/kg, po administered for 7 days measured on day 10 relative to control; format: organism-based; details: in vivo, 168 h
# W256 [14] = test: Antitumor activity against rat Walker 256 cells allografted in Wistar rat assessed as tumor inhibition at 0.08 mmol/kg, po qd for 7 days measured on day 10 relative to control; format: functional; details: read-out: TGI
# [15] = Antitumor activity against rat AH-130 cells allografted in Donryu rat assessed as tumor inhibition at 0.08 mmol/kg, po qd for 7 days measured on day 10 relative to control; format: functional; details: read-out: TGI
# [16] = Antitumor activity against mouse Ehrlich carcinoma cells allografted in ddY mouse assessed as tumor inhibition at 0.08 mmol/kg, po qd for 7 days measured on day 10 relative to control; format: functional; details: read-out: TGI
# YOSHIDA [17] = test: Antitumor activity against rat Yoshida cells allografted in Donryu rat assessed as tumor inhibition at 0.08 mmol/kg, po qd for 7 days measured on day 10 relative to control; format: functional; details: read-out: TGI
# Rattus norvegicus [18] = test: Toxicity in Donryu rat allografted with rat AH-130 cells assessed as body weight change at 0.15 mmol/kg, po administered for 7 days measured on day 10 relative to control; format: organism-based; details: in vivo, 168 h
# [19] = Toxicity in po dosed ddY mouse after 3 days by up and down method; format: organism-based; details: in vivo
# [20] = Toxicity in po dosed ddY mouse after 3 weeks by up and down method; format: organism-based; details: in vivo
Structure (SMILES),inhibition in vivo at 150 µmol/kg (Sarcoma-180 [1]),inhibition in vivo at 450 µmol/kg [2],inhibition in vivo at 450 µmol/kg [3],inhibition in vivo at 450 µmol/kg (W256 [4]),inhibition in vivo at 150 µmol/kg (YOSHIDA [5]),Activity (Rattus norvegicus [6]),inhibition in vivo at 450 µmol/kg (Sarcoma-180 [7]),inhibition in vivo at 150 µmol/kg (W256 [8]),inhibition in vivo at 450 µmol/kg (YOSHIDA [9]),inhibition in vivo at 150 µmol/kg [10],inhibition in vivo at 150 µmol/kg [11],inhibition in vivo at 80 µmol/kg (Sarcoma-180 [12]),Activity (Rattus norvegicus [13]),inhibition in vivo at 80 µmol/kg (W256 [14]),inhibition in vivo at 80 µmol/kg [15],inhibition in vivo at 80 µmol/kg [16],inhibition in vivo at 80 µmol/kg (YOSHIDA [17]),Activity (Rattus norvegicus [18]),LD50 at 72 h [19],LD50 at 504 h [20]
O=c1[nH]c(=O)n(C2CCCO2)cc1F (stereo not drawn) [TEGAFUR],38%,35%,54%,31%,32%,40.9 g,37%,27%,52%,22%,38%,–,–,–,–,–,–,–,–,–
O=c1[nH]cc(F)c(=O)[nH]1 [FLUOROURACIL],–,–,–,–,–,–,–,–,–,–,–,48%,42.1 g,24%,33%,42%,41%,–,–,–
O=c1[nH]cc(F)c(=O)n1C1CCCO1 (stereo not drawn),–,80%,–,–,–,21.7 g,–,–,–,45%,–,–,–,–,–,–,–,47.3 g,–,–
O=c1c(F)cn(C2CCCO2)c(=O)n1C1CCCO1 (stereo not drawn),45%,44%,61%,37%,43%,–,56%,27%,58%,32%,50%,–,–,–,–,–,–,–,2900 mg/kg,2660 mg/kg
